{"source": "patent US8461186B2", "about": "“Use of N-piperidine derivatives for the treatment of neurodegenerative pathologies” (Medestea Research & Production S.p.A., priority 2004, dated 2013)", "key": {"[1]": {"system": "lipid peroxidation in the Substantia Nigra", "assay_type": "in vivo", "conditions": "Substantia Nigra, 20 hours after Paraquat alone, 50 μg microinfusion", "description": "Microinfusion of 50 μg of Paraquat into the Substantia Nigra (n=20 rats) led to an increase in motor activity with the animals performing jumps and moving in circles in a contralateral direction relative to the injection position, about 24 minutes later; all of the animals were dead 24±2.5 hours after infusion. […]\n[…]. Enzymol. 52, 302-310, 1978."}, "[2]": {"system": "rats receiving Paraquat into Substantia Nigra", "assay_type": "in vivo, rat", "excerpt": "The Paraquat/rat/PS experimental model was therefore selected as the most indicative for checking the efficacy of chemical compounds according to the present invention; of these, two anti-oxidants designated MP1002 and MP1001 were used in the tests:\nMale Sprague Dawley rats (210-220 g weight) were kept on a standard laboratory diet supplemented with “Nossan Pellets” (both the animals and the pellets are available from Nossan Company, Milan, Italy) and were housed for three weeks (relative humidity 50%±10%, temperature 22° C.±1 and in a light/darkness cycle of 12 hours/12 hours, with first light at 7.30 a.m.) prior to the tests; food and water were available ad libitum.\nPrior to treatment, the rats were anaesthetized by intraperitoneal injection of 380 mg/kg weight of chloral hydrate; a stainless steel guide cannula (size 25) was implanted unilaterally in the Substantia Nigra with stereotaxic guiding and was secured to the cranium with dental acrylic material.\nThe animals (20 per test group) were allowed a recovery period of seven days prior to treatment; during this period no change in motor activity or posture was observed. Microinfusions were performed by means of a 10 μl Hamilton syringe connected to an injection cannula by means of a Teflon tube. The compounds or the vehicle (0.8% NaCl) were injected at a total volume of 1 μl/minute.\nMicroinfusion of 50 μg of Paraquat into the Substantia Nigra (n=20 rats) led to an increase in motor activity with the animals performing jumps and moving in circles in a contralateral direction relative to the injection position, about 24 minutes later; all of the animals were dead 24±2.5 hours after infusion. A further twenty animals were infused with Paraquat and twenty with Paraquat plus vehicle; about ten of the animals for each group survived 20 hours after treatment and were used to determine the development of lipid peroxidation in the Substantia Nigra."}, "[3]": {"conditions": "50 μg Paraquat into the Substantia Nigra, n=20 rats"}, "[4]": {"conditions": "Paraquat alone, 50 μg microinfusion into Substantia Nigra"}}, "data": [{"smiles": "C[n+]1ccc(-c2cc[n+](C)cc2)cc1", "note": "[Paraquat, reference compound]", "values": [{"measurement": "Lipid Peroxidation", "setting": "[1]", "value": "14.6 ± 1.34 nmol MDA × h^−1 × mg prot^−1"}, {"measurement": "time after infusion at which all of the animals were dead", "setting": "[2]; [3]", "value": "24 ± 2.5", "unit": "h"}, {"measurement": "time to increase in motor activity (jumps, contralateral circling) after microinfusion", "setting": "[2]; [3]", "value": "about 24 minutes"}, {"measurement": "Duration (seizures)", "setting": "[2]; [4]", "value": "270 ± 15", "unit": "min"}, {"measurement": "Latency (seizures)", "setting": "[2]; [4]", "value": "25 ± 4", "unit": "min"}, {"measurement": "Mortality", "setting": "[2]; [4]", "value": "100 (20/20) %"}]}]}
